# Reference: patent US7410975B2, “Small molecule toll-like receptor (TLR) antagonists” (Coley Pharmaceutical Group, Inc., priority 2003, dated 2008)
# Structures can show the parent of a compound that is named as a salt.
# Molecular target: T1, human TLR7 (hTLR7) (Homo sapiens, UniProt Q9NYK1)
# T1 construct: expressed in transfected cells
# T1 sequence (Q9NYK1 27-1049): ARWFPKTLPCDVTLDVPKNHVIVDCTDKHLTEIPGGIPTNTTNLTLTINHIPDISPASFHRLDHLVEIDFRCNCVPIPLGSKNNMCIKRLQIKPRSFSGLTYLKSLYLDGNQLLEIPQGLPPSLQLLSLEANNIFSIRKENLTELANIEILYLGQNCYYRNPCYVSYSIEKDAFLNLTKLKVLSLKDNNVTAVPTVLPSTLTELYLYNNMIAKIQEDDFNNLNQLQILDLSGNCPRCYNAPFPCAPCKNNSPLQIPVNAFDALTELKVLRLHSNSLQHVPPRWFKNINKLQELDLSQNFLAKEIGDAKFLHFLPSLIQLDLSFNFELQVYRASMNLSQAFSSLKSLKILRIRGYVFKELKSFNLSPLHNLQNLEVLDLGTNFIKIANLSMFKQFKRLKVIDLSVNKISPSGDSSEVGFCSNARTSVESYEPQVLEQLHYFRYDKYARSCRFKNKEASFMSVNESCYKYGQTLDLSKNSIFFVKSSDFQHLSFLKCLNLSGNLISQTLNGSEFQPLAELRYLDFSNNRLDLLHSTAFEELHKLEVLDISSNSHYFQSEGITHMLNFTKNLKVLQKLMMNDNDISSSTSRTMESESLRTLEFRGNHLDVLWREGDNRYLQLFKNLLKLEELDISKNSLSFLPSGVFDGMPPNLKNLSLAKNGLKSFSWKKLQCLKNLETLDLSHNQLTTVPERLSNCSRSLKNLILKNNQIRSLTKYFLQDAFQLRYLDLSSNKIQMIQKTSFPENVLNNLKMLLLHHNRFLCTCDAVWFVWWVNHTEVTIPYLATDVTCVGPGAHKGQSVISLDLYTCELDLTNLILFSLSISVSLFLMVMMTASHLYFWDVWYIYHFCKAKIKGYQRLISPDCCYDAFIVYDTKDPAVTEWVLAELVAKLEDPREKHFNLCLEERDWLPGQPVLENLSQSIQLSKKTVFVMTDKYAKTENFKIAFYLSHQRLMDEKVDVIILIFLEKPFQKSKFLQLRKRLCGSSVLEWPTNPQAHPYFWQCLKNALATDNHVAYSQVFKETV
# Test: Antagonist screen, hTLR7-NFκB-293 cells, NF-κB-luciferase reporter, with EC50 of R848
# Format: cell-based
# Details: compound at 0.5, 5, 50 μg/ml; EC50 concentration of R848; 16 h; NF-κB-luciferase
row,SMILES,"hTLR7 (inhibitory effect, antagonist score)"
1,"COc1cc2nc(N3CCN(C(=O)C4COc5ccccc5O4)CC3)nc(N)c2cc1OC.CS(=O)(=O)O (stereo not shown) [compound 858, Doxazosin mesylate]",— (compounds for which there was no clear down regulation even at 50 μg/ml)
2,"COc1cc2nc(N3CCN(C(=O)C4CCCO4)CC3)nc(N)c2cc1OC.Cl (stereo not shown) [compound 751, Terazosin hydrochloride]",— (compounds for which there was no clear down regulation even at 50 μg/ml)
3,CCN(CC)CCCNc1nc(-c2ccccc2)nc2ccccc12 [compound 2001],11 (compounds for which there was clear down regulation only at 50 μg/ml)
4,"CN(C)C(=O)C(CCN1CCC(O)(c2ccc(Cl)cc2)CC1)(c1ccccc1)c1ccccc1 [compound 144, Loperamidehydrochloride]",11 (compounds for which there was clear down regulation only at 50 μg/ml)
5,"CC(C)(C)c1ccc(C(O)CCCN2CCC(C(O)(c3ccccc3)c3ccccc3)CC2)cc1 (stereo not shown) [compound 138, Terfenadine]",11 (compounds for which there was clear down regulation only at 50 μg/ml)
6,"COc1cc2c(cc1O)C[C@H]1c3c(cc(O)c(OC)c3-2)CCN1C [compound 600, Boldine]",— (compounds for which there was no clear down regulation even at 50 μg/ml)
7,"CN1CCc2cc3c(c4c2C1Cc1ccccc1-4)OCO3.Cl (stereo not shown) [compound 669, Remerine hydrochloride]",11 (compounds for which there was clear down regulation only at 50 μg/ml)
8,CCN(CC)CCCC(C)Nc1nc(/C=C/c2ccc(Cl)cc2)nc2cc3ccccc3cc12 (stereo not shown) [compound 2000],"13 (compounds for which there was clear down regulation at 0.5 μg/ml, 5 μg/ml, and 50 μg/ml)"
9,"CN1CCc2cccc3c2[C@H]1Cc1ccc(O)c(O)c1-3.Cl [compound 101, Apomorphinehydrochloride (R, —)]",— (compounds for which there was no clear down regulation even at 50 μg/ml)

# Same assay, conditions: hTLR7-NFκB-293 cells, with EC50 of R848; compound at 0.5, 5 and 50 μg/ml
row,SMILES,hTLR7 (inhibitory effect)
1,CN1CCc2c1nc1ccccc1c2NC(=O)CN1CCCCCC1 [compound 1003],11 (compounds for which there was clear down regulation only at 50 μg/ml)
2,"Nc1c2c(nc3ccccc13)N(Cc1ccccc1)CC2 [compound 1217, 1-Benzyl-2,3-dihydro-1H-pyrrolo[2,3-b]quinolin-4-ylamine]","13 (compounds for which there was clear down regulation at 0.5 μg/ml, 5 μg/ml, and 50 μg/ml)"
3,CCCCCCN(CCCCCC)CC(=O)Nc1c2c(nc3ccccc13)N(C)CC2 [compound 1224],12 (compounds for which there was clear down regulation at 5 μg/ml and 50 μg/ml)
4,O=c1c2c(nc(NCCO)n1-c1ccccc1)-c1ccccc1CC21CCCC1 [compound 891],11 (compounds for which there was clear down regulation only at 50 μg/ml)
5,CCCCCCCCCCCC(=O)Nc1c2c(nc3ccccc13)N(C)CC2 [compound 1334],— (compounds for which there was no clear down regulation even at 50 μg/ml)
6,"COc1cc2cc3c4cc(OC)c(OC)cc4cc[n+]3c(C)c2cc1OC [compound 431, Coralyne chloridehydrate]",— (compounds for which there was no clear down regulation even at 50 μg/ml)
7,O=C1c2ccc(Oc3ccc(S(=O)(=O)c4ccc(Oc5ccc6c(c5)C(=O)N(c5ccccn5)C6=O)cc4)cc3)cc2C(=O)N1c1ccccn1 [compound 1367],11 (compounds for which there was clear down regulation only at 50 μg/ml)
8,"CN1CCc2c1nc1ccc(Br)cc1c2N [compound 1142, 6-Bromo-1-methyl-2,3-dihydro-1H-pyrrolo[2,3-b]quinolin-4-ylamine]",11 (compounds for which there was clear down regulation only at 50 μg/ml)
9,"CN(C)CCN(Cc1ccc(Cl)cc1)c1ccccn1.Cl [compound 807, Chloro-pyraminehydrochloride]",— (compounds for which there was no clear down regulation even at 50 μg/ml)
10,"CCOc1ccc(Cc2nccc3cc(OCC)c(OCC)cc23)cc1OCC.Cl [compound 830, Ethaverinehydrochloride]",11 (compounds for which there was clear down regulation only at 50 μg/ml)
11,Cc1ccc(-n2c(NCCO)nc3c(c2=O)C2(CCCCC2)Cc2ccccc2-3)cc1 [compound 1137],12 (compounds for which there was clear down regulation at 5 μg/ml and 50 μg/ml)
12,"CC[N+](C)(CC)CCC[n+]1c(-c2ccccc2)c2cc(N)ccc2c2ccc(N)cc21.[I-].[I-] [compound 792, Propidium iodide]",— (compounds for which there was no clear down regulation even at 50 μg/ml)
13,O=C1c2ccc(S(=O)(=O)c3ccc4c(c3)C(=O)N(c3ccccn3)C4=O)cc2C(=O)N1c1ccccn1 [compound 1163],11 (compounds for which there was clear down regulation only at 50 μg/ml)
14,CN1CCc2c1nc1ccccc1c2NC(=O)CN1CCN(c2ccccc2)CC1 [compound 1212],11 (compounds for which there was clear down regulation only at 50 μg/ml)
15,"Cc1ccc2nc3c(c(N)c2c1)CCN3C [compound 1091, 1,6-Dimethyl-2,3-dihydro-1H-pyrrolo[2,3-b]quinolin-4-ylamine]",11 (compounds for which there was clear down regulation only at 50 μg/ml)
16,"CN1CCCCc2c1nc1ccccc1c2N [compound 1185, 1-Methyl-2,3,4,5-tetrahydro-1H-azepino[2,3-b]quinolin-6-ylamine]",— (compounds for which there was no clear down regulation even at 50 μg/ml)
17,NNc1nc2c(c(=O)n1-c1ccccc1)C1(CCCC1)Cc1ccccc1-2 [compound 1320],— (compounds for which there was no clear down regulation even at 50 μg/ml)
18,O=c1c2c(nc(NCCO)n1Cc1ccccc1)-c1ccccc1CC21CCCC1 [compound 926],11 (compounds for which there was clear down regulation only at 50 μg/ml)
19,NNc1nc2c(c(=O)n1C1CCCC1)C1(CCCC1)Cc1ccccc1-2 [compound 1248],11 (compounds for which there was clear down regulation only at 50 μg/ml)
20,O=C(CN1CCCC1)Nc1c2c(nc3ccccc13)N(c1ccccc1)CC2 [compound 1244],11 (compounds for which there was clear down regulation only at 50 μg/ml)
21,"CN1CCc2c1nc1ccccc1c2N [compound 990, 1-Methyl-2,3-dihydro-1H-pyrrolo[2,3-b]quinolin-4-ylamine]",— (compounds for which there was no clear down regulation even at 50 μg/ml)
22,"COc1ccc2cc3[n+](cc2c1OC)CCc1cc2c(cc1-3)OCO2.[Cl-] [compound 586, Berberine chloride]",— (compounds for which there was no clear down regulation even at 50 μg/ml)
23,O=c1[nH]c(NCCO)nc2c1C1(CCCC1)Cc1ccccc1-2 [compound 1322],11 (compounds for which there was clear down regulation only at 50 μg/ml)
24,Cn1c(NN)nc2c(c1=O)C1(CCCC1)Cc1ccccc1-2 [compound 1213],11 (compounds for which there was clear down regulation only at 50 μg/ml)
25,"COc1ccc(Cc2nccc3cc(OC)c(OC)cc23)cc1OC.Cl [compound 583, Papaverinehydrochloride]",11 (compounds for which there was clear down regulation only at 50 μg/ml)
